Assay [1] concerns human platelet aggregation (PAF-induced). The assay is described as follows: Platelet Aggregation Inhibition Assay test (PAIA test): inhibition of PAF-induced human platelet aggregation in vitro. It counts as cell-based. The note with it: PAF-induced human platelet aggregation in PRP, 37° C., C-16 PAF 0.1 μM or 0.01 μM. The procedure: All of the compounds of formula I are useful as platelet activating factor inhibitors as indicated by their ability to inhibit platelet activating factor (PAF)-induced human platelet aggregation in vitro according to the Platelet Aggregation Inhibition Assay test (PAIA test) as follows:
Human subjects are kept aspirin free for one week and fasted overnight. Platelet rich plasma (PRP) is prepared by centrifugation (200×g.) of freshly drawn blood, anti-coagulated with 0.38% sodium citrate (final concentration). Platelet count is adjusted to 250,000 per μl using platelet poor plasma (PPP) obtained by a second centrifugation (700×g.) of the blood sample. An aliquot (0.38 ml.) of the PRP is dispensed into cuvettes and maintained at room temperature (22° C.) until used (but for not more than two hours). The PRP-containing cuvettes are incubated at 37° C. and stirred at 900 rpm within a Payton Aggregometer which is activated to follow the light deflection pattern prior to the addition of the test compound. […] Between one and two minutes after the addition of the test compound, the aggregation inducing agent (C-16 PAF-Sandoz-Hanover), dissolved in a buffer consisting of 0.01M Tris-Tyrodes buffer with 0.25% bovine serum albumin (pH 7.4), is added to the PRP-containing cuvettes in an amount predetermined to give a consistent aggregation response (either 0.1 μM or 0.01 μM). All aggregations are allowed to proceed for 6 minutes from the addition of the inducing agent. The aggregation response is quantitated by determining the area under the curve (AUC). The AUC calculated for the inducing agent alone is considered to be one hundred percent. The potential percent inhibition of the aggregation response is determined by dividing the AUC generated in the presence of the compound by the AUC of the inducing agent alone, multiplying by 100 and then subtracting from 100.

The target in assay [2] is T1, Human Platelet PAF Receptor (Homo sapiens, UniProt P25105).
T1 construct: from tissue; host or cells: washed human platelets from blood of healthy donors
T1 sequence (P25105 whole entry): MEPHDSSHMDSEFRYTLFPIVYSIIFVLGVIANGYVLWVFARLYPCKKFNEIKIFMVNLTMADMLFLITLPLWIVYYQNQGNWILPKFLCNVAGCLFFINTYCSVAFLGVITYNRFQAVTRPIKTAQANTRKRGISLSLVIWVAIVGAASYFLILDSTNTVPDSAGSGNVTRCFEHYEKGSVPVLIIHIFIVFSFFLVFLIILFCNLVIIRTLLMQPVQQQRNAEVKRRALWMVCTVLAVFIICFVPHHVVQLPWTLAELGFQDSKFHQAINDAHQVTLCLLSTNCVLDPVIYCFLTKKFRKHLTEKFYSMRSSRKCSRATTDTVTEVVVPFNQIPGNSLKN
The assay is described as follows: Human Platelet PAF Receptor Assay test (Test A): inhibition of specific binding of [3H]-PAF to platelets. Particulars: [3H]-PAF specific binding to human platelets, room temperature, one hour. As for the experimental part:
Human blood is obtained by venipuncture of healthy, human donors into an anti-coagulant mixture containing 3.15% of trisodium citrate and 20 μg/ml of Prostaglandin I2 (PGI2) in a ratio of blood to anti-coagulant of 9:1. Platelet rich plasma (PRP) is prepared by centrifugation (250×g) of the blood for 20 minutes at room temperature. The PRP is then centrifuged (900×g) for 10 minutes at room temperature and the platelet pellet is washed two times with Tris-Tyrode's (TT) solution having a pH of 7.4 and containing 0.25% bovine serum albumin (BSA), and to which has been added PGI2 at a final concentration of […]. The platelets are resuspended at […] in TT/BSA containing 1.4 mM CaCl2.2H2 O and 0.7 mM MgCl2.6H2 O. All of the tests are conducted in duplicate and each of the test compounds is evaluated at concentrations of 100, 50, 1 and 0.1 μM. For each determination, the following solutions are mixed:
500 μl of the above-described platelets;
10 μl of [^3 H]-PAF (40,000 counts per minute (cpm) to a final concentration of […]); and
10 μl of the test compound at 50× the desired final concentration,
10 μl of vehicle (total bound), or
10 μl of 1.85×10^-5 M cold PAF (non-specifically bound).
Each mixture is allowed to incubate at room temperature for one hour, after which time the reaction is terminated by the addition of 500 μl of ice cold TT/BSA and centrifugation (900×g) at 4° C. for 10 minutes. […] An additional 2 ml. of Scintiverse II is then added to the vials and, after mixing, the vials are counted for 1 minute in a liquid scintillation spectrometer. The amount of specific binding is calculated as the difference in cpm between the total bound [^3 H]-PAF and non-specifically bound [^3 H]-PAF. The percent inhibition of specific binding is determined by dividing the cpm specifically bound in the presence of the test compound by the cpm specifically bound in total, multiplying by 100 and then subtracting from 100. […]

For assay [3], the system named is PAF-mediated extravasation in guinea pigs. The assay is described as follows: PAF-induced Extravasation test (Test C), hemoconcentration (hematocrit). It counts as in vivo, guinea pig. Particulars: Cavia porcellus, ia, PAF 100 ng/kg iv, inhibition of percent increase in hematocrit. The procedure:
Still further, the compounds of formula I are useful as inhibitors of PAF-mediated extravasation (the extrusion of plasma from the lumen of the blood vessels into the vessel wall and surrounding tissues) measured as a function of hemoconcentration according to the PAF-induced Extravasation test (Test C) as follows.
Male guinea pigs, weighing between 300 and 400 gm, are anesthetized, after which time a femoral catheter is inserted. The test compound is administered intraarterially at one to five minutes prior to the introduction of PAF. The PAF (C18 -Sandoz, Hanover) is dissolved in Tris-Tyrode's bovine serum albumin buffer and administered intravenously (jugular) at 100 ng/kg.
To determine the hematocrit value, which is employed to index hemoconcentration and is defined as the percent of packed red blood cells in a sample of blood which is centrifuged to separate plasma from the cellular components, blood samples are collected in 50 μl heparinized hematocrit tubes. […] The tubes are then centrifuged and the percent of packed red blood cells (hematocrit) is measured (PAF induces a maximal increase in hematocrit at 5 to 7 minutes subsequent to the injection of PAF). The percent increase in hematocrit over the value prior to the injection of PAF is calculated. […]

The subject of assay [4] is PAF-induced hypotension in Wistar rats. The assay is described as follows: Inhibition of PAF-induced hypotension (Test D). It is filed as in vivo, rat (male Wistar). The note with it: male Wistar rats. As for the experimental part:
Yet still further, the compounds of formula I are useful as inhibitors of PAF-induced hypotension as measured by their ability to inhibit the lowering of blood pressure levels induced by PAF according to the following test (Test D):
Male Wistar rats, weighing approximately 300 gm, are anesthetized and their carotid arteries cannulated to enable their diastolic and systolic arterial blood pressure measurements to be recorded. PAF is then administered intravenously at either 100 or 500 ng/kg, and the blood pressure drop (within 10 sec.) and recovery time required to reach the pre-injection blood pressure level are measured. At 100 ng/kg, a 30% decrease in blood pressure and a 3 to 4 minute recovery time are observed, whereas at 500 ng/kg, a 52% decrease in blood pressure and a 10 minute recovery time are observed. In order to measure the effectiveness of a compound for both the inhibition of blood pressure decreases and shortening of the recovery time, the test compound is administered intravenously over a range of between 5 and 7 dosage levels (1 or 2 test animals per dose) and between 1 and 5 minutes prior to the introduction of PAF to generate an ED50.

For assay [5], the system named is PAF-mediated bronchoconstriction in guinea pigs. The assay is described as follows: PAF-induced Pulmonary Inflation Pressure (PIP) Increase test (Test B). It is filed as in vivo, guinea pig. Particulars: PAF 100 ng/kg iv, slowly decreases to baseline. As for the experimental part: Furthermore, in view of their usefulness as PAF receptor antagonists, the compounds of formula I have been found useful as inhibitors of PAF-mediated bronchoconstriction, which property was evaluated by the PAF-induced Pulmonary Inflation Pressure (PIP) Increase test (Test B) as follows:
Male guinea pigs, weighing between 300 and 400 gm, are anesthetized, after which time trachea tube, carotid and jugular catheters are inserted. The test animal is then force ventilated employing a small animal Harvard respirator and the resistance to lung inflation (PIP) is measured utilizing a pressure transducer and recorder. The test compound is administered either orally at 30 minutes prior to or intravenously (jugular) at 5 minutes prior to the introduction of PAF. The PAF (C18 -Sandoz, Hanover) is dissolved in Tris-Tyrode's bovine serum albumin buffer and administered intravenously (jugular) at 100 ng/kg. Any blood pressure measurements taken are recorded from a transducer attached to the carotid catheter. […] A reading at 15 minutes after the administration of PAF is termed the endpoint PIP. The effect of the test compound on the PIP response is determined by the difference between the percent increase in maximal PIP over baseline for the test animal to which has been administered PAF and the test compound compared to the test animal to which only PAF has been administered.

Where a name gives a salt, the structure may show the parent alone.

The term IC50 denotes the concentration that gives 50% inhibition. What is called ED50 is the dose that gives a 50% effect, or the effect in half of the subjects. Read a low ED50 as greater potency. As to `CCCCCCCCCCCCCCCCCCNC(=O)OCC1(COP(=O)([O-])OCC[n+]2ccsc2)CCCO1` (stereo not shown) [Example 3, 3-[2-[(2-Octadecylaminocarbonyloxymethyltetrahydrofuran-2-yl-methoxy)-hydroxyphosphinyloxy]-ethane]-thiazolium hydroxide inner salt-4-oxide], the IC50 in assay [1] amounted to 3.5 µM; in assay [2], 0.47 µM. Moreover, the ED50 was found to be 0.3 mg/kg in assay [3] and 1.5 mg/kg in assay [4] (Rattus norvegicus, iv, PAF-induced hypotension).
On to `CCCCCCCCCCCCCCCCCCOCC1(COP(=O)([O-])OCC[n+]2ccsc2)CCCO1` (stereo not shown) [Example 2, 3-[2-[(2-Octadecyloxymethyltetrahydrofuran-2-yl-methoxy)-hydroxyphosphinyloxy]-ethane]-thiazolium hydroxide inner salt-4-oxide], for which the IC50 worked out at 81.5 µM in assay [1] and 3.3 µM in assay [2].
As to “1-O-alkyl-2-acetyl-sn-glyceryl-3-phosphorylcholine [PAF]”, the “duration of long term PIP response” value in assay [5] is “at least 30 minutes”. Further, the “decrease in blood pressure” value in assay [4] (PAF 100 ng/kg iv) is reported as 30%. Also, in assay [4] (PAF 500 ng/kg iv), the “decrease in blood pressure” value was 52% and the “recovery time to pre-injection blood pressure level” value was 10 min.
`CCCCCCCCCCCCCCCCCCOCCC1(COP(=O)([O-])OCC[n+]2ccsc2)CCC(=O)O1` (stereo not shown) [Example 1, 3-[2-[(2-Octadecyloxy)ethyl-5-oxo-tetrahydrofuran-2-yl]methoxyhydroxyphosphinyloxy-ethane]thiazolium hydroxide-inner salt-4-oxide]: the IC50 turned out to be 10.5 µM in assay [1] and 1.8 µM in assay [2]. This molecule also showed an ED50 in assay [3] of 0.25 mg/kg.

Source of the values: patent publication US4619917A, “Substituted 2-furanyl- or 5-oxo-2-furanyl methoxy phosphoryl alkyl cyclimmonium salts” (Sandoz Pharm. Corp., priority 1985, dated 1986).
